Broadly, the TGI is the concentration giving total growth inhibition. Lower therefore signals more potent growth arrest. In general, GI50 refers to the concentration at which growth is held to half of that of the control.

Here are results for 12 compounds from PubChem BioAssay (NCI).

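Method: 48-hour compound exposure of cells in 96-well plates, five concentrations, linear interpolation of endpoints. GI50 is the concentration that inhibits growth by half. TGI: total growth inhibition.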

Among the test systems are SNB-19 CNS; U251 CNS; SF-295 CNS; UACC-257 melanoma; A498 renal; HCT-15 colon; CAKI-1 renal; SK-OV-3 ovarian; HL-60(TB) leukemia; SR leukemia; PC-3 prostate; MDA-MB-231 breast.
Assay in all cases: DTP human tumour cell line panel, 48 h

On to `C=C1CC[C@@H](Br)C(C)(C)[C@]12CCC(C)(O)C(Cl)C2` (stereo not given in full), for which the TGI in the assay with SNB-19 CNS was 43.4 µM; in the assay on U251 CNS, 29.7 µM; with SF-295 CNS it was 43.1 µM; in the assay with UACC-257 melanoma, 32.4 µM; in the assay on A498 renal it was 44.7 µM; in the assay on HCT-15 colon, 30.4 µM. Also, the results for the TGI in the assay on CAKI-1 renal, with SK-OV-3 ovarian and in the assay with HL-60(TB) leukemia were 32 µM, 37.4 µM and 42.2 µM, respectively.
As for `O=C(CCl)NC(Cc1ccc(F)cc1)C(=O)O` (stereo not given), the TGI in the assay with SNB-19 CNS, in the assay on U251 CNS, in the assay on SF-295 CNS, in the assay with UACC-257 melanoma, in the assay with A498 renal and in the assay with HCT-15 colon was over 100 µM throughout. In addition, the TGI in the assay with CAKI-1 renal, in the assay with SK-OV-3 ovarian and in the assay with HL-60(TB) leukemia was over 100 µM throughout.
Regarding `CCOC(=O)[C@H]1Nc2c(cccc2[N+](=O)[O-])[C@H]2OCC[C@@H]12`, the TGI was over 100 µM with SNB-19 CNS; over 100 µM with U251 CNS; over 100 µM in the assay on SF-295 CNS; 86.1 µM with UACC-257 melanoma; over 100 µM in the assay on HCT-15 colon; over 100 µM in the assay with CAKI-1 renal. Besides, in the assay on SR leukemia, the TGI was over 100 µM.
As for `CCCCCCCCCCCCCCCC(=O)OCC1CCCN2CCCCC12` (stereo not given), the TGI with SNB-19 CNS, in the assay with U251 CNS, with SF-295 CNS, with UACC-257 melanoma, in the assay with A498 renal and in the assay with HCT-15 colon was over 100 µM each time. In addition, the TGI with CAKI-1 renal, with SK-OV-3 ovarian, in the assay with PC-3 prostate, with HL-60(TB) leukemia and with MDA-MB-231 breast was over 100 µM each time.
Consider `O=C(O)NCc1ccccc1` (tested in a mixture with another compound), for which the TGI in the assay on SNB-19 CNS was over 100 µM; in the assay with U251 CNS, over 77.6 µM; with SF-295 CNS it was over 100 µM; in the assay on UACC-257 melanoma, over 95.9 µM; in the assay with A498 renal it was 85.3 µM; in the assay on HCT-15 colon it was over 100 µM. The TGI is over 100 µM in the assay on CAKI-1 renal; 12.8 µM with SR leukemia; over 100 µM with SK-OV-3 ovarian; over 66.4 µM in the assay with PC-3 prostate; 48.9 µM with HL-60(TB) leukemia; over 72.2 µM with MDA-MB-231 breast.
For `CC1CCC(O)(C(C)(C(=O)O)c2ccccc2)CC1` (stereo not given), the TGI in the assay on SNB-19 CNS, in the assay with U251 CNS, in the assay with SF-295 CNS, in the assay with UACC-257 melanoma, with A498 renal and in the assay with HCT-15 colon was over 100 µM each time. For the same compound, the TGI in the assay with CAKI-1 renal, in the assay with PC-3 prostate, in the assay on HL-60(TB) leukemia and in the assay with MDA-MB-231 breast was over 100 µM throughout.
Take `CC[C@H](Nc1nc(N)nc(C)c1C#N)c1nc2cccc(NCc3ccc(C(=O)NO)cc3)c2c(=O)n1-c1ccccc1`: the GI50 is 1.94 µM in the assay on UACC-257 melanoma; 1.04 µM with A498 renal; 2.29 µM in the assay on HCT-15 colon; 0.697 µM in the assay with SR leukemia; 2.05 µM in the assay with SK-OV-3 ovarian; 0.905 µM with PC-3 prostate. The GI50 is 3.04 µM with HL-60(TB) leukemia and 1.84 µM with MDA-MB-231 breast. Moreover, the TGI in the assay with UACC-257 melanoma was 6.2 µM; in the assay on A498 renal, 2.42 µM; with HCT-15 colon it was 6.25 µM; with SR leukemia it was over 100 µM; with SK-OV-3 ovarian, 5.03 µM; with PC-3 prostate it was 3.3 µM. For the same compound, the TGI is over 100 µM in the assay on HL-60(TB) leukemia and 5.3 µM in the assay with MDA-MB-231 breast.
For the compound `NC(=S)Nc1cc(Cl)ccc1Cl`, the concentration for total growth inhibition (TGI) with SNB-19 CNS, in the assay with U251 CNS, in the assay on SF-295 CNS, in the assay with UACC-257 melanoma, in the assay on A498 renal and with HCT-15 colon was over 100 µM each time. Moreover, the TGI in the assay on CAKI-1 renal, in the assay on SR leukemia, in the assay on SK-OV-3 ovarian and with HL-60(TB) leukemia was over 100 µM in each case.
Consider `COc1cc(N/N=C/C#N)cc(OC)c1OC`, for which the TGI in the assay with SNB-19 CNS, with U251 CNS, in the assay on SF-295 CNS, in the assay with A498 renal, in the assay on HCT-15 colon and with CAKI-1 renal was over 10 µM throughout. In addition, the total growth inhibition concentration (TGI) with SR leukemia is over 10 µM; in the assay with SK-OV-3 ovarian, over 10 µM; in the assay with PC-3 prostate, over 10 µM; in the assay with HL-60(TB) leukemia, 5.64 µM; in the assay on MDA-MB-231 breast, over 10 µM.
Turning to `C/C(=N\Oc1cc(Cl)ncn1)c1ccccn1`, the TGI was over 100 µM in the assay on SNB-19 CNS; over 100 µM in the assay on U251 CNS; over 100 µM with SF-295 CNS; over 100 µM with UACC-257 melanoma; 57.5 µM in the assay with CAKI-1 renal; over 100 µM in the assay with SR leukemia. The values for the TGI in the assay with SK-OV-3 ovarian, with PC-3 prostate and in the assay with MDA-MB-231 breast were over 100 µM, over 100 µM and 87.6 µM, respectively.
In the case of `Cc1cc2c(cc1C)[n+](=O)c(C#N)c(Cl)n2[O-]`, the TGI with SNB-19 CNS was over 100 µM; in the assay on U251 CNS, 70.9 µM; in the assay with SF-295 CNS, over 100 µM; in the assay with UACC-257 melanoma it was 27 µM; in the assay on A498 renal it was 39.5 µM; with HCT-15 colon it was 16.7 µM. Moreover, the TGI in the assay with CAKI-1 renal is 19.7 µM; in the assay with SR leukemia, over 100 µM; in the assay with SK-OV-3 ovarian, 70.5 µM; with PC-3 prostate, over 100 µM; in the assay on HL-60(TB) leukemia, 84.3 µM; in the assay with MDA-MB-231 breast, 63.8 µM.
For `Nc1nncc2c1ccn2C1OC(CO)C(O)C1O` (stereo not given), the TGI with SNB-19 CNS, with U251 CNS, with SF-295 CNS, in the assay with UACC-257 melanoma, with A498 renal and with HCT-15 colon was over 100 µM in each case. Besides, the TGI with SR leukemia, in the assay on SK-OV-3 ovarian and in the assay on HL-60(TB) leukemia was over 100 µM throughout.
